From paper PMC4585259 (Frontiers in Pharmacology, 2015)
Where two headings read alike, the source gives them in different places.

Biological target: T1, rNav1.2 sodium channels (Rattus norvegicus, UniProt P04775)
T1 construct: host or cells: HEK-293
Test: QPatch automated patch clamp, inhibition of sodium currents evoked by 5 Hz trains at three extracellular pH values
Type: cell-based
Details: for class of pH-dependence pattern (cluster analysis): Ward's method on 18 variables of affinity, reversibility, onset; for τoffset / τonset: concentration (lidocaine 300 μM, memantine 30 μM); for inhibition: 100 μM
In short: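 Trains of 5 steps from −90 to −10 mV every 20 s. Apparent affinity, onset/offset time constants (single-exponential fits) and reversibility (w−i)/(c−i) were derived from single-concentration data.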

[1] = pH 6.0, single concentration (lidocaine 300 μM, memantine 30 μM), geometric mean of 5, read-out: apparent affinity
[2] = pH 7.3, single concentration (lidocaine 300 μM, memantine 30 μM), geometric mean of 5, read-out: apparent affinity
[3] = pH 8.6, single concentration (lidocaine 300 μM, memantine 30 μM), geometric mean of 5, read-out: apparent affinity
[4] = pH=6.0, cc 100 mM, read-out: Apparent Affinity
[5] = pH=7.3, cc 100 mM, read-out: Apparent Affinity
[6] = pH=8.6, cc 100 mM, read-out: Apparent Affinity

T1 sequence (P04775 whole entry): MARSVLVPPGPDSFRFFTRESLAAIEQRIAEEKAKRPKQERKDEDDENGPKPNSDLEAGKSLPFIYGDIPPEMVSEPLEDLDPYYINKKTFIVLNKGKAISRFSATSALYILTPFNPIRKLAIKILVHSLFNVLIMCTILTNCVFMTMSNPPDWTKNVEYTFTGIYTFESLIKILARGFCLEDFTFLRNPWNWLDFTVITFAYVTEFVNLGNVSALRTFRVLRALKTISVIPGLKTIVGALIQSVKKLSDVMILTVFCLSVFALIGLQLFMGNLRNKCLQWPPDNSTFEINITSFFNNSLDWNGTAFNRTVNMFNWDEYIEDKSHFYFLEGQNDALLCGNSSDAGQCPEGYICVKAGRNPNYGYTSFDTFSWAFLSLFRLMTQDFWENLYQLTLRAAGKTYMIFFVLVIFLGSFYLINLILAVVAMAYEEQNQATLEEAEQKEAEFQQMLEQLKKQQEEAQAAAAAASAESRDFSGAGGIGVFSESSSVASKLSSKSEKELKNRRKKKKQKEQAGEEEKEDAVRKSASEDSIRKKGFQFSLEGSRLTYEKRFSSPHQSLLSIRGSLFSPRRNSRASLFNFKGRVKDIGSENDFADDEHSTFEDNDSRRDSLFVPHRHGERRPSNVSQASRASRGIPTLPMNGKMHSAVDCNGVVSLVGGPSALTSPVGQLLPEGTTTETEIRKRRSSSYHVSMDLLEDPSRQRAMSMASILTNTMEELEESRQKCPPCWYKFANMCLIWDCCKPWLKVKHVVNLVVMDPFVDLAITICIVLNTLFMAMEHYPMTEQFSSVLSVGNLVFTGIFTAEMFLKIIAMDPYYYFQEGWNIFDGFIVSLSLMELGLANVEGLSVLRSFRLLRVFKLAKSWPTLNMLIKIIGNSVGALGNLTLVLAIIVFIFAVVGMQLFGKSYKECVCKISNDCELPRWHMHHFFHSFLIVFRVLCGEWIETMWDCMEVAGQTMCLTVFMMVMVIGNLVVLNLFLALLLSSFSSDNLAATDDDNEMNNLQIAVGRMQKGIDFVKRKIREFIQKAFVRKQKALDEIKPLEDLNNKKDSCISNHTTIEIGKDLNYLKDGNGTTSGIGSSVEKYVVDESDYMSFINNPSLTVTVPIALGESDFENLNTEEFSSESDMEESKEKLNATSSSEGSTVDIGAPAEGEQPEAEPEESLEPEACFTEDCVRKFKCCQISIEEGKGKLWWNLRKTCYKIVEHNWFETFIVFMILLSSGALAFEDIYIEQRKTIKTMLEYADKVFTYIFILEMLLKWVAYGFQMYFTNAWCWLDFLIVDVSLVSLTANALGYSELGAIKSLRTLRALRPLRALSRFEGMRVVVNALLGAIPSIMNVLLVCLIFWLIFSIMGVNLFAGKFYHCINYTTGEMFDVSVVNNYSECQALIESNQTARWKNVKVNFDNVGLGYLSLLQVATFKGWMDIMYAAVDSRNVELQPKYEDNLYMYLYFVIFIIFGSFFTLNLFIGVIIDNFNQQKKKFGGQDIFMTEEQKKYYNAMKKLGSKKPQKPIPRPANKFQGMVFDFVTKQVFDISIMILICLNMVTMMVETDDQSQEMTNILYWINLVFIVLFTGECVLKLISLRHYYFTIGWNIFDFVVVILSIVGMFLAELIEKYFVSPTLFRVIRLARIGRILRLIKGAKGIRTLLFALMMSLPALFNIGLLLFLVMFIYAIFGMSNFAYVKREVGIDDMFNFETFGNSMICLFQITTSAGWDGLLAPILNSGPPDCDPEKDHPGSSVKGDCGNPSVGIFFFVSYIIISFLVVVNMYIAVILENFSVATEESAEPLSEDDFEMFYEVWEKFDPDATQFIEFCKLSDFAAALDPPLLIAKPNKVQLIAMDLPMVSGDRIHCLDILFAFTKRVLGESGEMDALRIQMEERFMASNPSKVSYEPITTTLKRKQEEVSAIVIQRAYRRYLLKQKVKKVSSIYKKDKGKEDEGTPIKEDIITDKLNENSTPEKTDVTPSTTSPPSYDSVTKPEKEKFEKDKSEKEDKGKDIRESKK

`Cc1nc2sccn2c(=O)c1CCN1CCC(=C(c2ccc(F)cc2)c2ccc(F)cc2)CC1` [ritanserin] was tested, and the “fold more potent at neutral pH than at pH = 6.0” value (30 μM) was 3.5 fold, the “fold more potent at neutral pH than at pH = 8.6” value (30 μM) was 5.9 fold and the “class of pH-dependence pattern (cluster analysis)” value (“class of pH-dependence pattern” for short) was “Class E”. The “effect of alkalic pH on onset/offset kinetics” value (in words) was “decelerated onset”, the alkalization-induced recovery (neutral-to-alkalic solution exchange, in words) was “prominent alkalization-induced recovery” and the “reversibility at all three pH values” (pH 6.0, 7.3 and 8.6) was “below 0.6”. For the same compound, the “Ratio Reversibility” value (pH 6.0/7.3, cc 30 mM) was 0.981, the “Ratio Tau Offset” value (pH 6.0/7.3, cc 30 mM) was 0.863 and the “Ratio Tau Onset” value (pH 6.0/7.3, cc 30 mM) was 0.656. The “log Ratio App Aff” value (pH 6.0/7.3, cc 30 mM) was 0.541, the “Ratio Reversibility” value (pH 6.0/8.6, cc 30 mM) was 4.330 and the “Ratio Tau Offset” value (pH 6.0/8.6, cc 30 mM) was 0.456. The “Ratio Tau Onset” value (pH 6.0/8.6, cc 30 mM) was 0.393, the “log Ratio App Aff” value (pH 6.0/8.6, cc 30 mM) was -0.230 and the τoffset (pH 6.0) was 17.60 s. For the same compound, the τonset (pH 6.0) was 11.80 s, the Kd [1] was 30.8 µM and the “Ratio Reversibility” value (pH 7.3/8.6, cc 30 mM) was 4.412. The “Ratio Tau Offset” value (pH 7.3/8.6, cc 30 mM) was 0.528, the “Ratio Tau Onset” value (pH 7.3/8.6, cc 30 mM) was 0.600 and the “log Ratio App Aff” value (pH 7.3/8.6, cc 30 mM) was -0.772. For the same compound, the τoffset (pH 7.3) was 20.40 s, the τonset (pH 7.3) was 18.00 s and the Kd [2] was 8.87 µM. For the same compound, the τoffset (pH 8.6) was 38.60 s, the τonset (pH 8.6) was 30.00 s and the Kd [3] was 52.4 µM. It also gave a Reversibility (pH=6.0, cc 30 mM) of 0.36, a Kd (pH=6.0, cc 30 mM, read-out: Apparent Affinity) of 30.8 µM and a Reversibility (pH=7.3, cc 30 mM) of 0.37. It also gave a Kd (pH=7.3, cc 30 mM, read-out: Apparent Affinity) of 8.87 µM, a Reversibility (pH=8.6, cc 30 mM) of 0.08 and a Kd (pH=8.6, cc 30 mM, read-out: Apparent Affinity) of 52.4 µM.

In the case of `C[Si](C)(Cc1ccc(F)cc1)CN1CCCCC1` [silperisone], the inhibition (pH 6.0) is reported as 23%, the inhibition (pH 7.3) is reported as 42% and the inhibition (pH 8.6) is reported as 79%. The “class of pH-dependence pattern” value was “Class F”, the “Ratio Reversibility” value (pH 6.0/7.3, cc 100 mM) was 0.877 and the “Ratio Tau Offset” value (pH 6.0/7.3, cc 100 mM) was 1.240. For the same compound, the “Ratio Tau Onset” value (pH 6.0/7.3, cc 100 mM) was 0.900, the “log Ratio App Aff” value (pH 6.0/7.3, cc 100 mM) was 0.387 and the “Ratio Reversibility” value (pH 6.0/8.6, cc 100 mM) was 1.714. The “Ratio Tau Offset” value (pH 6.0/8.6, cc 100 mM) was 0.894, the “Ratio Tau Onset” value (pH 6.0/8.6, cc 100 mM) was 1.154 and the “log Ratio App Aff” value (pH 6.0/8.6, cc 100 mM) was 1.096. For the same compound, the τoffset (pH 6.0) was 18.60 s, the τonset (pH 6.0) was 9.00 s and the Kd [1] was 334 µM. For the same compound, the “Ratio Reversibility” value (pH 7.3/8.6, cc 100 mM) was 1.955, the “Ratio Tau Offset” value (pH 7.3/8.6, cc 100 mM) was 0.721 and the “Ratio Tau Onset” value (pH 7.3/8.6, cc 100 mM) was 1.282. The “log Ratio App Aff” value (pH 7.3/8.6, cc 100 mM) was 0.709, the τoffset (pH 7.3) was 15.00 s and the τonset (pH 7.3) was 10.00 s. For the same compound, the Kd [2] was 137 µM, the τoffset (pH 8.6) was 20.80 s and the τonset (pH 8.6) was 7.80 s. The Kd [3] was 26.8 µM, the Reversibility (pH=6.0, cc 100 mM) was 0.80 and the Kd [4] was 334 µM. For the same compound, the Reversibility (pH=7.3, cc 100 mM) was 0.92, the Kd [5] was 137 µM and the Reversibility (pH=8.6, cc 100 mM) was 0.47. It also gave a Kd [6] of 26.8 µM.

With `Cc1ccc(C(=O)C(C)CN2CCCCC2)cc1` (centres unmarked) [tolperisone] the “decrease of recovery at pH = 8.6 as compared to pH = 7.3” value was 1.35 fold, the “class of pH-dependence pattern” value was “Class F” and the “Ratio Reversibility” value (pH 6.0/7.3, cc 100 mM) was 0.699. For the same compound, the “Ratio Tau Offset” value (pH 6.0/7.3, cc 100 mM) was 1.256, the “Ratio Tau Onset” value (pH 6.0/7.3, cc 100 mM) was 1.028 and the “log Ratio App Aff” value (pH 6.0/7.3, cc 100 mM) was 0.132. The “Ratio Reversibility” value (pH 6.0/8.6, cc 100 mM) was 0.944, the “Ratio Tau Offset” value (pH 6.0/8.6, cc 100 mM) was 1.286 and the “Ratio Tau Onset” value (pH 6.0/8.6, cc 100 mM) was 1.423. The “log Ratio App Aff” value (pH 6.0/8.6, cc 100 mM) was 0.542, the τoffset (pH 6.0) was 16.20 s and the τonset (pH 6.0) was 7.40 s. The Kd [1] was 373 µM, the “Ratio Reversibility” value (pH 7.3/8.6, cc 100 mM) was 1.349 and the “Ratio Tau Offset” value (pH 7.3/8.6, cc 100 mM) was 1.024. For the same compound, the “Ratio Tau Onset” value (pH 7.3/8.6, cc 100 mM) was 1.385, the “log Ratio App Aff” value (pH 7.3/8.6, cc 100 mM) was 0.410 and the τoffset (pH 7.3) was 12.90 s. The τonset (pH 7.3) was 7.20 s, the Kd [2] was 275 µM and the τoffset (pH 8.6) was 12.60 s. For the same compound, the τonset (pH 8.6) was 5.20 s, the Kd [3] was 107 µM and the “KD app, effect of acidic medium” value (pH = 6.0 vs neutral, increased KD app = decreased apparent affinity) was “MEM,MEX,TOL↑”. It also gave a Reversibility (pH=6.0, cc 100 mM) of 0.65, a Kd [4] of 373 µM and a Reversibility (pH=7.3, cc 100 mM) of 0.93. For the same compound, the Kd [5] was 275 µM, the Reversibility (pH=8.6, cc 100 mM) was 0.69 and the Kd [6] was 107 µM.

In the case of `COc1ccc(C(CN(C)C)C2(O)CCCCC2)cc1` (centres unmarked) [venlafaxine], the Kd (Apparent Affinity, pH=6.0, cc 100 mM) is reported as 810 µM, the Kd (Apparent Affinity, pH=7.3, cc 100 mM) is reported as 539 µM and the Kd (Apparent Affinity, pH=8.6, cc 100 mM) is reported as 174 µM. The “class of pH-dependence pattern” value was “Class D”, the Kd (apparent affinity, pH 6.0, single concentration (lidocaine 300 μM, memantine 30 μM), geometric mean of 5) was 810 µM and the Kd (apparent affinity, pH 7.3, single concentration (lidocaine 300 μM, memantine 30 μM), geometric mean of 5) was 539 µM. The Kd (apparent affinity, pH 8.6, single concentration (lidocaine 300 μM, memantine 30 μM), geometric mean of 5) was 174 µM, the inhibition at 100 µM (pH 6) was less than 25% and the “Ratio Reversibility” value (pH 6.0/7.3, cc 100 mM) was 0.250. The “Ratio Tau Offset” value (pH 6.0/7.3, cc 100 mM) was 1.446, the “Ratio Tau Onset” value (pH 6.0/7.3, cc 100 mM) was 1.639 and the “log Ratio App Aff” value (pH 6.0/7.3, cc 100 mM) was 0.177. For the same compound, the “Ratio Reversibility” value (pH 6.0/8.6, cc 100 mM) was 0.250, the “Ratio Tau Offset” value (pH 6.0/8.6, cc 100 mM) was 1.330 and the “Ratio Tau Onset” value (pH 6.0/8.6, cc 100 mM) was 1.405. For the same compound, the “log Ratio App Aff” value (pH 6.0/8.6, cc 100 mM) was 0.669, the τoffset (pH 6.0) was 13.30 s and the τonset (pH 6.0) was 11.80 s. For the same compound, the inhibition at 100 µM (pH 7.3) was less than 25%, the “Ratio Reversibility” value (pH 7.3/8.6, cc 100 mM) was 0.999 and the “Ratio Tau Offset” value (pH 7.3/8.6, cc 100 mM) was 0.920. The “Ratio Tau Onset” value (pH 7.3/8.6, cc 100 mM) was 0.857, the “log Ratio App Aff” value (pH 7.3/8.6, cc 100 mM) was 0.492 and the τoffset (pH 7.3) was 9.20 s. For the same compound, the τonset (pH 7.3) was 7.20 s, the τoffset (pH 8.6) was 10.00 s and the τonset (pH 8.6) was 8.40 s. The “effect of acidic pH on recovery” value (pH = 6.0 vs 7.3, in words) was “decreased recovery”, the Reversibility (pH=6.0, cc 100 mM) was 0.18 and the Reversibility (pH=7.3, cc 100 mM) was 0.73. It also gave a Reversibility (pH=8.6, cc 100 mM) of 0.73.
